Measurements reported in PubChem BioAssay (NCI).
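Growth conditions: 96-well plates. Treatment: test compound, 48 hours, 5 concentrations. Analysis: linear interpolation between bracketing concentrations; unreached endpoints set to highest concentration. At the TGI there is no net growth.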

What was measured:
Test in all cases: NCI tumour cell line growth inhibition, 48 h
NCI-H226 lung = test system: NCI-H226 lung
SN12C renal = test system: SN12C renal
MDA-MB-435 = test system: MDA-MB-435
SK-MEL-5 melanoma = test system: SK-MEL-5 melanoma
SW-620 colon = test system: SW-620 colon
HCT-15 colon = test system: HCT-15 colon
SF-268 CNS = test system: SF-268 CNS
SNB-19 CNS = test system: SNB-19 CNS
EKVX NSCLC = test system: EKVX NSCLC
BT-549 breast = test system: BT-549 breast
U251 CNS = test system: U251 CNS
HS 578T breast = test system: HS 578T breast
OVCAR-8 ovarian = test system: OVCAR-8 ovarian
HCT-116 colon = test system: HCT-116 colon
CAKI-1 renal = test system: CAKI-1 renal
TK-10 renal = test system: TK-10 renal
RPMI-8226 leukemia = test system: RPMI-8226 leukemia
A498 renal = test system: A498 renal
DU-145 prostate = test system: DU-145 prostate
MDA-MB-231 breast = test system: MDA-MB-231 breast

For `C=C1CCCC(C)(C)C1CCC1(C)CCC(C(C)C(=O)OC)OO1` (stereo not given), the TGI (NCI-H226 lung) was greater than 25 µM, the TGI (SN12C renal) was 8.4 µM and the TGI (MDA-MB-435) was 7.59 µM. For the same compound, the TGI (SK-MEL-5 melanoma) was greater than 25 µM, the TGI (SW-620 colon) was 24.2 µM and the TGI (HCT-15 colon) was greater than 25 µM. It also gave a TGI (SF-268 CNS) of 7.77 µM, a TGI (SNB-19 CNS) greater than 18.1 µM and a TGI (EKVX NSCLC) of 21.8 µM. It also gave a TGI (BT-549 breast) of 9.97 µM, a TGI (U251 CNS) of 7.21 µM and a TGI (HS 578T breast) of 13.8 µM. It also gave a TGI (OVCAR-8 ovarian) greater than 19.8 µM, a TGI (HCT-116 colon) greater than 25 µM and a TGI (CAKI-1 renal) of 0.749 µM. The TGI (TK-10 renal) was 7.72 µM, the TGI (RPMI-8226 leukemia) was 25 µM and the TGI (A498 renal) was greater than 15.3 µM. It also gave a TGI (DU-145 prostate) of 8.63 µM and a TGI (MDA-MB-231 breast) greater than 25 µM.

For `Nc1ccc(Oc2ccc(C3(c4ccc(Oc5ccc(N)cc5)cc4)C4CC5CC(C4)CC3C5)cc2)cc1`, the TGI (NCI-H226 lung) was greater than 78.4 µM, the TGI (SN12C renal) was 21.9 µM and the TGI (MDA-MB-435) was 35.6 µM. The TGI (SK-MEL-5 melanoma) was greater than 100 µM, the TGI (SW-620 colon) was greater than 66.5 µM and the TGI (HCT-15 colon) was 35.7 µM. The TGI (SF-268 CNS) was greater than 95.3 µM, the TGI (SNB-19 CNS) was greater than 100 µM and the TGI (EKVX NSCLC) was greater than 81.4 µM. It also gave a TGI (BT-549 breast) greater than 49.2 µM, a TGI (U251 CNS) of 21.5 µM and a TGI (HS 578T breast) greater than 100 µM. It also gave a TGI (OVCAR-8 ovarian) greater than 48.9 µM, a TGI (HCT-116 colon) of 13.7 µM and a TGI (CAKI-1 renal) greater than 83.4 µM. The TGI (TK-10 renal) was greater than 92.4 µM, the TGI (RPMI-8226 leukemia) was 17.4 µM and the TGI (A498 renal) was 9.36 µM. For the same compound, the TGI (DU-145 prostate) was greater than 53.5 µM and the TGI (MDA-MB-231 breast) was 37.6 µM.

In the case of `Cn1c(=O)c2c(nc3sc4c(n32)C(=O)c2c(O)ccc(O)c2C4=O)n(C)c1=O`, the TGI (NCI-H226 lung) is reported as greater than 100 µM, the TGI (SN12C renal) is reported as 3.93 µM and the TGI (MDA-MB-435) is reported as 15.5 µM. For the same compound, the TGI (SK-MEL-5 melanoma) was 8.35 µM, the TGI (SW-620 colon) was 1.78 µM and the TGI (HCT-15 colon) was 4.72 µM. For the same compound, the TGI (SF-268 CNS) was 24.5 µM, the TGI (SNB-19 CNS) was greater than 91.5 µM and the TGI (EKVX NSCLC) was 33.8 µM. For the same compound, the TGI (BT-549 breast) was 17.7 µM, the TGI (U251 CNS) was greater than 48.7 µM and the TGI (HS 578T breast) was 64.1 µM. For the same compound, the TGI (OVCAR-8 ovarian) was 11 µM, the TGI (HCT-116 colon) was 4.68 µM and the TGI (CAKI-1 renal) was 18.6 µM. It also gave a TGI (TK-10 renal) of 15.2 µM, a TGI (RPMI-8226 leukemia) of 2.04 µM and a TGI (A498 renal) of 57.4 µM. The TGI (DU-145 prostate) was 26.7 µM and the TGI (MDA-MB-231 breast) was 5.26 µM.

`N#Cc1ccc(CSC2=C(c3ccc(Cl)cc3)S/C(=C3\SC(SCc4ccc(C#N)cc4)=C(c4ccc(Cl)cc4)S3)S2)cc1` was tested, and the TGI (NCI-H226 lung) was greater than 100 µM, the TGI (SN12C renal) was greater than 100 µM and the TGI (MDA-MB-435) was greater than 100 µM. For the same compound, the TGI (SK-MEL-5 melanoma) was greater than 100 µM, the TGI (SW-620 colon) was greater than 100 µM and the TGI (HCT-15 colon) was greater than 100 µM. For the same compound, the TGI (SF-268 CNS) was greater than 100 µM, the TGI (SNB-19 CNS) was greater than 100 µM and the TGI (EKVX NSCLC) was greater than 100 µM. The TGI (BT-549 breast) was greater than 100 µM, the TGI (U251 CNS) was greater than 100 µM and the TGI (HS 578T breast) was greater than 100 µM. It also gave a TGI (OVCAR-8 ovarian) greater than 100 µM, a TGI (HCT-116 colon) greater than 100 µM and a TGI (CAKI-1 renal) greater than 100 µM. For the same compound, the TGI (TK-10 renal) was greater than 100 µM, the TGI (RPMI-8226 leukemia) was greater than 100 µM and the TGI (A498 renal) was greater than 100 µM. For the same compound, the TGI (DU-145 prostate) was greater than 100 µM and the TGI (MDA-MB-231 breast) was greater than 100 µM.

With `COc1ccc2[nH]cc(C(=O)C(=O)NC34CC5CC(CC(C5)C3)C4)c2c1` the TGI (NCI-H226 lung) was greater than 71.1 µM, the TGI (SN12C renal) was 51.9 µM and the TGI (MDA-MB-435) was greater than 100 µM. For the same compound, the TGI (SK-MEL-5 melanoma) was greater than 100 µM, the TGI (SW-620 colon) was greater than 100 µM and the TGI (HCT-15 colon) was greater than 90.3 µM. The TGI (SF-268 CNS) was greater than 100 µM, the TGI (SNB-19 CNS) was greater than 100 µM and the TGI (EKVX NSCLC) was greater than 100 µM. For the same compound, the TGI (BT-549 breast) was greater than 100 µM, the TGI (U251 CNS) was greater than 85.3 µM and the TGI (HS 578T breast) was greater than 91.1 µM. For the same compound, the TGI (OVCAR-8 ovarian) was greater than 100 µM, the TGI (HCT-116 colon) was greater than 100 µM and the TGI (CAKI-1 renal) was greater than 100 µM. The TGI (TK-10 renal) was greater than 100 µM, the TGI (RPMI-8226 leukemia) was 19.8 µM and the TGI (A498 renal) was greater than 76.1 µM. The TGI (DU-145 prostate) was greater than 100 µM and the TGI (MDA-MB-231 breast) was 97.9 µM.

In the case of `CC(Oc1ccccc1Cl)C(=O)NN1C(=O)CC(=O)NC1=S` (stereo not given), the TGI (NCI-H226 lung) is reported as greater than 100 µM, the TGI (SN12C renal) is reported as greater than 100 µM and the TGI (MDA-MB-435) is reported as greater than 100 µM. The TGI (SK-MEL-5 melanoma) was greater than 100 µM, the TGI (SW-620 colon) was greater than 100 µM and the TGI (HCT-15 colon) was greater than 100 µM. For the same compound, the TGI (SF-268 CNS) was greater than 100 µM, the TGI (SNB-19 CNS) was greater than 100 µM and the TGI (EKVX NSCLC) was greater than 100 µM. The TGI (BT-549 breast) was greater than 100 µM, the TGI (U251 CNS) was greater than 100 µM and the TGI (HS 578T breast) was greater than 100 µM. It also gave a TGI (OVCAR-8 ovarian) greater than 100 µM, a TGI (HCT-116 colon) greater than 100 µM and a TGI (CAKI-1 renal) greater than 100 µM. For the same compound, the TGI (TK-10 renal) was greater than 100 µM, the TGI (RPMI-8226 leukemia) was greater than 100 µM and the TGI (A498 renal) was greater than 100 µM. For the same compound, the TGI (DU-145 prostate) was greater than 100 µM and the TGI (MDA-MB-231 breast) was greater than 100 µM.

With `CN(C)CCCSc1nc2c(c(=N)n1-c1ccccc1)c(=S)n(-c1ccccc1)c(=S)n2-c1ccccc1` the TGI (NCI-H226 lung) was 28.4 µM, the TGI (SN12C renal) was 3.18 µM and the TGI (MDA-MB-435) was 3.09 µM. For the same compound, the TGI (SK-MEL-5 melanoma) was 3.79 µM, the TGI (SW-620 colon) was 3.65 µM and the TGI (HCT-15 colon) was 3.32 µM. The TGI (SF-268 CNS) was 3.33 µM, the TGI (SNB-19 CNS) was 8.14 µM and the TGI (EKVX NSCLC) was 3.58 µM. It also gave a TGI (BT-549 breast) of 3.38 µM, a TGI (U251 CNS) of 3.19 µM and a TGI (HS 578T breast) greater than 100 µM. The TGI (OVCAR-8 ovarian) was 3.2 µM, the TGI (HCT-116 colon) was 3.46 µM and the TGI (CAKI-1 renal) was 3.16 µM. The TGI (TK-10 renal) was 3.09 µM, the TGI (RPMI-8226 leukemia) was 1.84 µM and the TGI (A498 renal) was 4.89 µM. It also gave a TGI (DU-145 prostate) of 3.04 µM and a TGI (MDA-MB-231 breast) of 3.03 µM.

`OC[P+](CO)(CO)C12CC3CC(CC(C3)C1)C2` was tested, and the TGI (NCI-H226 lung) was greater than 100 µM, the TGI (SN12C renal) was greater than 100 µM and the TGI (MDA-MB-435) was greater than 100 µM. The TGI (SK-MEL-5 melanoma) was greater than 100 µM, the TGI (SW-620 colon) was greater than 100 µM and the TGI (HCT-15 colon) was greater than 100 µM. For the same compound, the TGI (SF-268 CNS) was greater than 100 µM, the TGI (SNB-19 CNS) was greater than 100 µM and the TGI (EKVX NSCLC) was greater than 100 µM. It also gave a TGI (BT-549 breast) greater than 100 µM, a TGI (U251 CNS) greater than 100 µM and a TGI (HS 578T breast) greater than 100 µM. For the same compound, the TGI (OVCAR-8 ovarian) was greater than 100 µM, the TGI (HCT-116 colon) was greater than 100 µM and the TGI (CAKI-1 renal) was greater than 100 µM. For the same compound, the TGI (TK-10 renal) was greater than 100 µM, the TGI (RPMI-8226 leukemia) was 59.2 µM and the TGI (A498 renal) was greater than 100 µM. It also gave a TGI (DU-145 prostate) greater than 100 µM and a TGI (MDA-MB-231 breast) greater than 100 µM.
